Test results taken from patent publication US6716862B2, “5-(Substituted)-5-(substitutedsulfonyl or sulfanyl) thiazolidine-2,4-diones useful for inhibition of farnesyl-protein transferase” (Wyeth Holdings Corporation, priority 2001, dated 2004).

Legend:
[1] = target: FPTase (farnesyl-protein transferase) with H-Ras as substrate for farnesylation (UniProt P29702+P49355); assay: in vitro FTase Inhibition Assay (H-Ras substrate); assay type: biochemical
Protocol: Enzyme assay: FPTase inhibition in vitro assay was performed according to James, G. L., Brown, M. S., and Goldstein, J. L., Methods in Enzymology, 1995, 255, 38-46; and Garcia, M. A., et al., J. Biol. Chem., 1993, 268,18415-18420.
Materials—Purified FPTase (Moomaw, J. F. and Casey, P. J., J. Biol. Chem., 1992, 267, 17438-17443), purified His6-Ras, inhibitor compounds at 10 mg/ml or 10 mM in 100% DMSO, ^3H-FPP (50,000 dpm/pmol) Amersham, TCA/SDS (6%/2%), TCA (6%), Glass fiber filters ([…]), vacuum manifold or 96 well filtration plates.
Methods—1. Dilute FPTase inhibitors from stock solutions to 2.5× in 2.5% DMSO, 10 mM DTT, 0.5% octyl-B-glucoside. 2. Solution #1 is added to FPTase reaction in a volume of […]. 3. Standard reaction mix, […], contains 50 mM Tris (7.5),[…], 3 mM MgCl2, 20 mM KCl, 5 mM DTT, 0.2% octyl-B-glucoside, 1% DMSO, […], 10 ng FPTase, and various concentrations of FPTase inhibitors. 4. Incubate for 30-90 min at 25° C. 5. Stop reactions with TCA/SDS (6%/2%), hold at 4° C. for 45-60 min. 6. Filter by manifold or 96 well plate, wash filter 3-5× with TCA (6%). 7. Add scintillant to filters, measure ^3H-FPP incorporation into Ras protein.
Analysis of Results—Percent inhibition by test compounds is determined by the following:
(cpm from precipitated Ras with test compounds)−(background cpm)×100=% inhibition.
(cpm from precipitated Ras without test compounds)−(background cpm)

| IC50 [1] [nM] | melting point [°C] | Activity* (% inhib. at 10 μM) [1] | SMILES |
| --- | --- | --- | --- |
| 2250 | 202 to 204 |  | Cc1ccc(S(=O)(=O)C2(Cc3ccc(OCCc4nc(-c5ccccc5)oc4C)cc3)SC(=O)NC2=O)cc1 (stereo not drawn) [Example 1, 5-(4-[2-(5-Methyl-2-phenyloxazol-4-yl)ethoxy]benzyl)-5-(4-methylbenzenesulfonyl)thiazolidine-2,4-dione] |
| 6500 | 236 to 237 |  | Cc1ccc(S(=O)(=O)C2(Cc3ccc(Br)cc3F)SC(=O)NC2=O)cc1 (stereo not drawn) [Example 2, 5-(4-Bromo-2-fluorobenzyl)-5-(4-methylbenzenesulfonyl)thiazolidine-2,4-dione] |
|  | 183 to 184 | (1%) | Cc1ccc(S(=O)(=O)C2(Cc3ccc(Cl)c(Cl)c3)SC(=O)NC2=O)cc1 (stereo not drawn) [Example 3, 5-(3,4-Dichlorobenzyl)-5-(4-methylbenzenesulfonyl)thiazolidine-2,4-dione] |
|  | 195 to 197 | (1%) | O=C1NC(=O)C(Cc2ccc(Br)cc2F)(S(=O)(=O)c2ccc3ccccc3c2)S1 (stereo not drawn) [Example 4, 5-(4-Bromo-2-fluorobenzyl)-5-(naphthalene-2-sulfonyl)thiazolidine-2,4-dione] |
|  | 133 to 136 | (−2%) | Cc1oc(-c2ccccc2)nc1CCOc1ccc(CC2(S(=O)(=O)c3ccc4ccccc4c3)SC(=O)NC2=O)cc1 (stereo not drawn) [Example 5, 5-(4-[2-(5-Methyl-2-phenyloxazol-4-yl)ethoxy]benzyl)-5-(naphthalene-2-sulfonyl)thiazolidine-2,4-dione] |
|  | 146 to 152 | (21%) | COc1ccc(S(=O)(=O)C2(Cc3ccccc3)SC(=O)NC2=O)cc1 (stereo not drawn) [Example 6, 5-Benzyl-5-(4-methoxybenzenesulfonyl)thiazolidine-2,4-dione] |
| 2500 |  |  | COc1ccc(S(=O)(=O)C2(Cc3ccccc3)SC(=O)N(CC(=O)NO)C2=O)cc1 (stereo not drawn) [Example 7, 2-[5-Benzyl-5-(4-methoxybenzenesulfonyl)-2,4-dioxothiazolidin-3-yl]-N-hydroxyacetamide] |
| 1300 |  |  | COc1ccc(C2(c3cccc(CC4(Sc5ccc(C)cc5)SC(=O)NC4=O)c3)OCCO2)cc1 (stereo not drawn) [Example 8, 5-(3-[2-(4-Methoxyphenyl)[1,3]dioxolan-2-yl]benzyl)-5-(4-methylbenzenesulfanyl)thiazolidine-2,4-dione] |
| 1200 |  |  | COc1ccc(C2(c3cccc(CC4(S(=O)(=O)c5ccc(C)cc5)SC(=O)NC4=O)c3)OCCO2)cc1 (stereo not drawn) [Example 9, 5-(3-[2-(4-Methoxyphenyl)[1,3]dioxolan-2-yl]benzyl)-5-(4-methylbenzenesulfonyl)thiazolidine-2,4-dione] |
| 4250 |  |  | COc1ccc(C(=O)c2cccc(CC3(S(=O)(=O)c4ccc(C)cc4)SC(=O)NC3=O)c2)cc1 (stereo not drawn) [Example 10, 5-(3-(4-methoxybenzoyl)benzyl)-5-(4-methylbenzenesulfonyl)thiazolidine-2,4-dione] |
| 2500 |  |  | COc1ccc(C(=O)c2cccc(CC3(Sc4ccc(C)cc4)SC(=O)NC3=O)c2)cc1 (stereo not drawn) [Example 11, 5-(3-(4-methoxybenzoyl)benzyl)-5-(4-methylbenzenesulfanyl)thiazolidine-2,4-dione] |
| 3700 |  |  | COc1ccc(C(O)c2cccc(CC3(Sc4ccc(C)cc4)SC(=O)NC3=O)c2)cc1 (stereo not drawn) [Example 12, 5-(3-[Hydroxy(4-methoxyphenyl)methyl]-benzyl)-5-(4-methylbenzenesulfanyl)thiazolidine-2,4-dione] |
|  |  | (28%) | Cc1ccc(S(=O)(=O)C2(Cc3ccc(Br)cc3)SC(=O)NC2=O)cc1 (stereo not drawn) [Example 13] |
| 77 |  |  | Cc1ccc(S(=O)(=O)C2(Cc3ccc(-c4ccccc4C#N)cc3)SC(=O)NC2=O)cc1 (stereo not drawn) [Example 14, 5-[2′-cyanobiphen-4-ylmethyl]-5-(4-methylbenzenesulfonyl)thiazolidine-2,4-dione] |
|  |  | (4%) | Cc1ccc(S(=O)(=O)C2(Cc3ccc(-c4ccccc4-c4nnn[nH]4)cc3)SC(=O)NC2=O)cc1 (stereo not drawn) [Example 15, 5-[2′-(1H-Tetrazol-5-yl)biphen-4-ylmethyl]-5-(4-methylbenzenesulfonyl)thiazolidine-2,4-dione] |
| 350 |  |  | COc1ccc(S(=O)(=O)C2(Cc3ccc(-c4ccccc4C#N)cc3)SC(=O)NC2=O)cc1 (stereo not drawn) [Example 16, 5-[2′-cyanobiphen-4-ylmethyl]-5-(4-methoxybenzenesulfonyl)thiazolidine-2,4-dione] |
| 2900 |  |  | COc1ccc(Cc2cccc(CC3(Sc4ccc(C)cc4)SC(=O)NC3=O)c2)cc1 (stereo not drawn) [Example 17, 5-[3-(4-Methoxybenzyl)benzyl]-5-(4-methylbenzenesulfanyl)thiazolidine-2,4-dione] |
| 4500 |  |  | Cc1ccc(SC2(Cc3cccc(C4(c5cccs5)OCCO4)c3)SC(=O)NC2=O)cc1 (stereo not drawn) [Example 18, 5-[3-(2-Thiophen-2-yl[1,3]dioxolan-2-yl)benzyl]-5-(4-methylbenzenesulfanyl)thiazolidine-2,4-dione] |
| 2800 |  |  | Cc1ccc(SC2(Cc3cccc(C(=O)c4cccs4)c3)SC(=O)NC2=O)cc1 (stereo not drawn) [Example 19, 5-[3-(Thiophene-2-carbonyl)benzyl]-5-(4-methylbenzenesulfanyl)thiazolidine-2,4-dione] |
| 1700 | 119 to 122 |  | COc1ccc(S(=O)(=O)C2(Cc3ccc(-c4ccccc4)cc3)SC(=O)NC2=O)cc1 (stereo not drawn) [Example 20, 5-Biphen-4-ylmethyl-5-(4-methoxybenzenesulfonyl)thiazolidine-2,4-dione] |
| 1000 | 197 to 200 |  | COc1ccc(S(=O)(=O)C2(Cc3ccc(-c4ccc(Cl)cc4)cc3)SC(=O)NC2=O)cc1 (stereo not drawn) [Example 21, 5-(4′-Chlorobiphen-4-ylmethyl)-5-(4-methoxybenzenesulfonyl)thiazolidine-2,4-dione] |
| 2500 |  |  | COc1ccc(S(=O)(=O)C2(Cc3ccc(-c4cccc(C(F)(F)F)c4)cc3)SC(=O)NC2=O)cc1 (stereo not drawn) [Example 22, 5-(4-Methoxybenzenesulfonyl)-5-(3′-(trifluoromethyl)biphen-4-ylmethyl)thiazolidine-2,4-dione] |
| > 10000 | 122 to 125 |  | COc1ccc(S(=O)(=O)C2(Cc3ccc(-c4cc(C(F)(F)F)cc(C(F)(F)F)c4)cc3)SC(=O)NC2=O)cc1 (stereo not drawn) [Example 23, 5-(3′,5′-Bis(trifluoromethyl)biphen-4-ylmethyl)-5-(4-methoxybenzenesulfonyl)thiazolidine-2,4-dione] |
| 740 | 104 to 107 |  | COc1ccc(S(=O)(=O)C2(Cc3ccc(-c4ccc(Cl)cc4Cl)cc3)SC(=O)NC2=O)cc1 (stereo not drawn) [Example 24, 5-(2′,4′-Dichlorobiphen-4-ylmethyl)-5-(4-methoxybenzenesulfonyl)thiazolidine-2,4-dione] |
| 3500 |  |  | Cc1ccc(SC2(Cc3cccc(Oc4cccc(Cl)c4)c3)SC(=O)NC2=O)cc1 (stereo not drawn) [Example 25, 5-[3-(3-Chlorophenoxy)benzyl]-5-(4-methylbenzenesulfanyl)thiazolidine-2,4-dione] |
| 6000 |  |  | Cc1ccc(S(=O)(=O)C2(Cc3cccc(C4(c5cccs5)OCCO4)c3)SC(=O)NC2=O)cc1 (stereo not drawn) [Example 26, 5-[3-(2-thiophen-2-yl[1,3]dioxolan-2-yl)benzyl]-5-(4-methylbenzenesulfonyl)thiazolidine-2,4-dione] |
